Assays:
human GHSR = target: T1, human GHSR (Homo sapiens, UniProt Q92847); experiment: Functional FLIPR assay: inhibition of the ghrelin-evoked peak response in CHO cells stably expressing human GHSR (IC50, functional Ki); type: cell-based; settings: functional Ki calculated from IC50 by Cheng-Prusoff equation, Fluo-4AM, ghrelin at EC70
T1 construct: host or cells: Chinese hamster ovary (CHO) cells
Procedure: Chinese hamster ovary cells (CHO), cell line (ES-410-F) purchased from Euroscreen, stably expressing the human GHSR seeded in 96 well plates are pre-loaded with Fluo-4AM fluorescent dye for 60 min before addition of test compounds (5 μM for primary screen). Fluorescent intensity is recorded using a Fluorometric imaging plate reader (FLIPR 98R 96-well format, Molecular Devices) and inhibition of the peak response evoked by ghrelin (EC70 concentration) is calculated.
Potency (IC50) determinations are performed utilizing the same functional assay as described for primary screening, applying the compounds in the concentration range of 170 pM to 10 μM or 340 pM to 20 μM.
The calculation of the functional Ki values for the inhibitors was performed by use of Activity Base. The Ki value is calculated from IC50 using the Cheng Prushoff equation (with reversible inhibition that follows the Michaelis-Menten equation): […] [Cheng, Y. C.; Prushoff, W. H. Biochem. Pharmacol. 1973, 22, 3099-3108]. […]

T1 sequence (Q92847 whole entry): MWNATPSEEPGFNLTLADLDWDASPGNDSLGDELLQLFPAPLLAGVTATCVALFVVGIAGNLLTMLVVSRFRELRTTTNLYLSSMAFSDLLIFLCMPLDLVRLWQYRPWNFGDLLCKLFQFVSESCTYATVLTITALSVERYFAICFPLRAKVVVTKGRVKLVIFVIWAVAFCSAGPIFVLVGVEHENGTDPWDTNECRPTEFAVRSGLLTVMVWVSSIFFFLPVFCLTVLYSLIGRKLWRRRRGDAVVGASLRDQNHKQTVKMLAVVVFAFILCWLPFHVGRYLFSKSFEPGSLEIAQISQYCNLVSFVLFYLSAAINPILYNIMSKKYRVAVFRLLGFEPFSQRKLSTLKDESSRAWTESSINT

melting point | Ki (human GHSR) | SMILES
> 180 °C |  | COc1ccc2[nH]c3c(c2c1)CCNC31CCNC1 (stereo not drawn) [Comparative Example 1, 6-Methoxy-2,3,4,9-tetrahydrospiro[beta-carboline-1,3′-pyrrolidine]]
 | 60 nM | COc1ccc2[nH]c3c(c2c1)CCNC31CCN(CCOc2ccccc2)C1 (stereo not drawn) [Example 10, 6-Methoxy-1′-(2-phenoxyethyl)-2,3,4,9-tetrahydrospiro[beta-carboline-1,3′-pyrrolidine]]
 | 572 nM | Fc1ccc2c3c([nH]c2c1)C1(CCN(CCOc2ccccc2)C1)NCC3 (stereo not drawn) [Example 11, 7-Fluoro-1′-(2-phenoxyethyl)-2,3,4,9-tetrahydrospiro[beta-carboline-1,3′-pyrrolidine]]
 | 59 nM | CCCCNC(=O)N1CCc2c([nH]c3ccc(OC)cc23)C12CCN(CCOc1ccccc1)C2 (stereo not drawn) [Example 30, N-Butyl-6-methoxy-1′-(2-phenoxyethyl)-4,9-dihydrospiro[beta-carboline-1,3′-pyrrolidine]-2(3H)-carboxamide]
